Our source for the IC50 and Km values is publication PMC4142139 (European Journal of Drug Metabolism and Pharmacokinetics, 2014).

In data set [1] the target is T1, OATP1B1*5 (Homo sapiens, UniProt Q9Y6L6, V174A).
T1 sequence (Q9Y6L6 1-691 V174A): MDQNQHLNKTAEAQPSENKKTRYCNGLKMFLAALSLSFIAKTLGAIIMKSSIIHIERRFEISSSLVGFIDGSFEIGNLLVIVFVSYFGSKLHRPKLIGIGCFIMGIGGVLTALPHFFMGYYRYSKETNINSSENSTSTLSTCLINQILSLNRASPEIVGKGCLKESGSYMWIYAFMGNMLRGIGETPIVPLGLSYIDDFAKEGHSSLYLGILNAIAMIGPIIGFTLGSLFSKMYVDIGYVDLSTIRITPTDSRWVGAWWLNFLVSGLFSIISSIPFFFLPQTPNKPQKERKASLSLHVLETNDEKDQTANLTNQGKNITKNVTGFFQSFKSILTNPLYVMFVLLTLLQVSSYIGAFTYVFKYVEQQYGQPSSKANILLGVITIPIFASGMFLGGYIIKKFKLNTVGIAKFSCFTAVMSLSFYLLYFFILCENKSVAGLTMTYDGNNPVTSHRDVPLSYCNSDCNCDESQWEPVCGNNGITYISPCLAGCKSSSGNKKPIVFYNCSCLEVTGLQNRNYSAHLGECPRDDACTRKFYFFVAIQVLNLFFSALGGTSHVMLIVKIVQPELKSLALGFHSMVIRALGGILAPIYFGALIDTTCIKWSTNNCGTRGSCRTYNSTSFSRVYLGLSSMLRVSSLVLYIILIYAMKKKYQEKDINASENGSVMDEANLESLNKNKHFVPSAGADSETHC
In words: inhibition of rosuvastatin uptake in OATP1B1*5-HEK293T cells, LC/MS. In kind it is cell-based.

Data set [2] has as its target T2, OATP1B1*1a (Homo sapiens, UniProt Q9Y6L6).
T2 sequence (Q9Y6L6 1-691): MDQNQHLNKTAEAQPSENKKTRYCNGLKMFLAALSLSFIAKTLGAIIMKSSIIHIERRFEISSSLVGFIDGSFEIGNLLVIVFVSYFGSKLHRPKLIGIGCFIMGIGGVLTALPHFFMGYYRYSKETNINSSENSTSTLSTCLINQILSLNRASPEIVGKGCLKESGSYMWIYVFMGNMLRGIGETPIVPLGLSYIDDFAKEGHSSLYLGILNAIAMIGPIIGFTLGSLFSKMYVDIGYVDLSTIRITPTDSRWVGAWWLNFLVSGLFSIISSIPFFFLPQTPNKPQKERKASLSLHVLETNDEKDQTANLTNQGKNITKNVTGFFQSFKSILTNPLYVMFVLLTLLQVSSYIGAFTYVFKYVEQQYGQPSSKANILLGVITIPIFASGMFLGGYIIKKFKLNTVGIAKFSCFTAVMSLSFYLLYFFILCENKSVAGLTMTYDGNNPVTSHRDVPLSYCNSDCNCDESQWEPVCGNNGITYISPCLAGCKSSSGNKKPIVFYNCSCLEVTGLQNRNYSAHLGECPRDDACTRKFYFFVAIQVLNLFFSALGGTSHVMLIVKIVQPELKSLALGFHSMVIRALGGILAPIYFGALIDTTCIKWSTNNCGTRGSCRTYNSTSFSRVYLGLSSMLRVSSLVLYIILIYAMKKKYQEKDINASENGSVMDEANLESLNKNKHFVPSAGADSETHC
In words: inhibition of rosuvastatin uptake in OATP1B1*1a-HEK293T cells, LC/MS. In kind it is cell-based.

Substrate in data set [3]: CC(C)c1nc(N(C)S(C)(=O)=O)nc(-c2ccc(F)cc2)c1/C=C/[C@@H](O)C[C@@H](O)CC(=O)O
The data set can be described thus: concentration-dependent uptake kinetics. In kind it is cell-based, Homo sapiens.

`C[C@H]1[C@H](C)CC[C@]2(C(=O)O)CC[C@]3(C)C(=CC[C@@H]4[C@@]5(C)CC[C@H](O)C(C)(C)[C@@H]5CC[C@]43C)[C@H]12` [UA, 3b-hydroxy-urs-12-en-28-oic-acid]: the concentration for half-maximal inhibition (IC50) in data set [1] worked out at 6.07 ± 0.57 µM; in data set [2], 6.25 ± 0.42 µM.

B1: OATP1B1*1a (Homo sapiens) (protein)
chain: MDQNQHLNKTAEAQPSENKKTRYCNGLKMFLAALSLSFIAKTLGAIIMKSSIIHIERRFEISSSLVGFIDGSFEIGNLLVIVFVSYFGSKLHRPKLIGIGCFIMGIGGVLTALPHFFMGYYRYSKETNINSSENSTSTLSTCLINQILSLNRASPEIVGKGCLKESGSYMWIYVFMGNMLRGIGETPIVPLGLSYIDDFAKEGHSSLYLGILNAIAMIGPIIGFTLGSLFSKMYVDIGYVDLSTIRITPTDSRWVGAWWLNFLVSGLFSIISSIPFFFLPQTPNKPQKERKASLSLHVLETNDEKDQTANLTNQGKNITKNVTGFFQSFKSILTNPLYVMFVLLTLLQVSSYIGAFTYVFKYVEQQYGQPSSKANILLGVITIPIFASGMFLGGYIIKKFKLNTVGIAKFSCFTAVMSLSFYLLYFFILCENKSVAGLTMTYDGNNPVTSHRDVPLSYCNSDCNCDESQWEPVCGNNGITYISPCLAGCKSSSGNKKPIVFYNCSCLEVTGLQNRNYSAHLGECPRDDACTRKFYFFVAIQVLNLFFSALGGTSHVMLIVKIVQPELKSLALGFHSMVIRALGGILAPIYFGALIDTTCIKWSTNNCGTRGSCRTYNSTSFSRVYLGLSSMLRVSSLVLYIILIYAMKKKYQEKDINASENGSVMDEANLESLNKNKHFVPSAGADSETHC
Take B1: the Michaelis-Menten constant (Km) in data set [3] was determined as 19.87 ± 5.96 µM.

B2: OATP1B1*5 (Homo sapiens; V174A) (protein)
chain: MDQNQHLNKTAEAQPSENKKTRYCNGLKMFLAALSLSFIAKTLGAIIMKSSIIHIERRFEISSSLVGFIDGSFEIGNLLVIVFVSYFGSKLHRPKLIGIGCFIMGIGGVLTALPHFFMGYYRYSKETNINSSENSTSTLSTCLINQILSLNRASPEIVGKGCLKESGSYMWIYAFMGNMLRGIGETPIVPLGLSYIDDFAKEGHSSLYLGILNAIAMIGPIIGFTLGSLFSKMYVDIGYVDLSTIRITPTDSRWVGAWWLNFLVSGLFSIISSIPFFFLPQTPNKPQKERKASLSLHVLETNDEKDQTANLTNQGKNITKNVTGFFQSFKSILTNPLYVMFVLLTLLQVSSYIGAFTYVFKYVEQQYGQPSSKANILLGVITIPIFASGMFLGGYIIKKFKLNTVGIAKFSCFTAVMSLSFYLLYFFILCENKSVAGLTMTYDGNNPVTSHRDVPLSYCNSDCNCDESQWEPVCGNNGITYISPCLAGCKSSSGNKKPIVFYNCSCLEVTGLQNRNYSAHLGECPRDDACTRKFYFFVAIQVLNLFFSALGGTSHVMLIVKIVQPELKSLALGFHSMVIRALGGILAPIYFGALIDTTCIKWSTNNCGTRGSCRTYNSTSFSRVYLGLSSMLRVSSLVLYIILIYAMKKKYQEKDINASENGSVMDEANLESLNKNKHFVPSAGADSETHC
As for B2, the Km in data set [3] stood at 10.05 ± 4.02 µM.
